Data published in article PMC7568786, “Tilianin Protects against Ischemia/Reperfusion-Induced Myocardial Injury through the Inhibition of the Ca^2+/Calmodulin-Dependent Protein Kinase II-Dependent Apoptotic and Inflammatory Signaling Pathways” (BioMed Research International, 2020).

Biological target: T1, CaMKIIδ (Homo sapiens, UniProt Q13557)
T1 construct: gene CAMK2D; recombinant CaMKIIδ (Invitrogen)
Experiment: in vitro kinase assay with autocamtide-2 peptide, ADP quantification
Assay type: biochemical

T1 sequence (Q13557 2-499): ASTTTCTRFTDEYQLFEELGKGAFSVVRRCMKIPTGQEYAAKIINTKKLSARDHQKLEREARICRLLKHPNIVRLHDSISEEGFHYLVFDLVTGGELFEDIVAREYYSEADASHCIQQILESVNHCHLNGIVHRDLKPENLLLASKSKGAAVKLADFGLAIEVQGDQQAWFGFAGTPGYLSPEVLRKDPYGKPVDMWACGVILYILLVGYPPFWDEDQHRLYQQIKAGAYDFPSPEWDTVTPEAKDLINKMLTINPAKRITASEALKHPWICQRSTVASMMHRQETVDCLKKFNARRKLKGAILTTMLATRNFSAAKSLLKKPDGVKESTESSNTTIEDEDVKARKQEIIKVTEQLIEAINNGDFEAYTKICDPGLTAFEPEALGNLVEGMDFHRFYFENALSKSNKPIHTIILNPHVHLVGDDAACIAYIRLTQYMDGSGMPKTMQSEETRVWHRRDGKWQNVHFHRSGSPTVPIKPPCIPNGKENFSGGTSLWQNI

Question: With `COc1ccc(-c2cc(=O)c3c(O)cc(O[C@@H]4O[C@H](CO)[C@@H](O)[C@H](O)[C@H]4O)cc3o2)cc1` [tilianin] as the compound, how does the IC50 read?
Answer: > 100 µM

Question: With `COc1ccc(S(=O)(=O)N(CCO)c2ccccc2CN(C)C/C=C/c2ccc(Cl)cc2)cc1` [KN93] as the compound, how does the IC50 read?
Answer: 6.37 µM
